Measurements reported in US20150011508A1, “COMPOUNDS AND COMPOSITIONS AS C-KIT KINASE INHIBITORS” (priority 2011, published 2015).

The compounds below were run against T1, c-kit (Homo sapiens, UniProt P10721) (assay: Mo7e cell proliferation assay (SCF dependent proliferation)). Conditions: Table 1; human Mo7e cells stimulated with human recombinant SCF, 48 h, CellTiter Glo; 1% FBS (footnote).
T1 construct: human Mo7e cells which endogenously express c-kit; endogenous in cells; host or cells: human Mo7e cells (SCF-dependent promegakaryocytic leukemia line)
T1 sequence (P10721 26-976): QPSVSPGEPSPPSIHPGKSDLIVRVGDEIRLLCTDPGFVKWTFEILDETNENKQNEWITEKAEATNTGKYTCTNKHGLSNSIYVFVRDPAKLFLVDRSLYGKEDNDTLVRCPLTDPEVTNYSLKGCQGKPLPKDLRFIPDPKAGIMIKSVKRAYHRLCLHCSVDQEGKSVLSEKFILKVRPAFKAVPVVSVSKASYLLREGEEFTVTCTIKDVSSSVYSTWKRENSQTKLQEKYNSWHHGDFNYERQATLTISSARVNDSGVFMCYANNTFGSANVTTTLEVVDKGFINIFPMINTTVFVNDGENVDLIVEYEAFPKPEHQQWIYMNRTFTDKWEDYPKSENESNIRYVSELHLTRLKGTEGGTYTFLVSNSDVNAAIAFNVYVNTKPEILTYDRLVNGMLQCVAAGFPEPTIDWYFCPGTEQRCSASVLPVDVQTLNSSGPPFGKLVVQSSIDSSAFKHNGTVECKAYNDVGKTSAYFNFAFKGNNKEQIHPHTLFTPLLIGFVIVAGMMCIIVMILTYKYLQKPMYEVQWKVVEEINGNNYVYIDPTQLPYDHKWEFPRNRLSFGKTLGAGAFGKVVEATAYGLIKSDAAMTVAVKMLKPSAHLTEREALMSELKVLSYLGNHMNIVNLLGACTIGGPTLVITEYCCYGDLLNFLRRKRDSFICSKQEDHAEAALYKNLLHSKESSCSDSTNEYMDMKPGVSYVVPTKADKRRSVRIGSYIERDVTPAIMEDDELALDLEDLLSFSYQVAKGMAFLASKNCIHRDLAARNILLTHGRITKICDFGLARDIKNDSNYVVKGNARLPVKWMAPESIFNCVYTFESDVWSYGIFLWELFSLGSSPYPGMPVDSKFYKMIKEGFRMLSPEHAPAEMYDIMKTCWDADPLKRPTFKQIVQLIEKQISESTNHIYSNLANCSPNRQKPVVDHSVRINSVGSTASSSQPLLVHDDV
Assay type: cell-based
Procedure: Compounds of Formula (I) and Formula (II) provided herein were assayed to measure their capacity to inhibit c-kit and PDGFR kinases using the appropriate assay described below: c-Kit inhibition was evaluated using the Mo7e cell proliferation assay, and PDGFR inhibition was evaluated using the Rat A10 cell proliferation assay and the Human TGHA-VSMC cell proliferation assay.
The compounds of Table 1 and Table 2 were tested for inhibition of SCF dependent proliferation using human Mo7e cells which endogenously express c-kit in a 384 well format. […] After 48 hours of incubation at 37° C., cell viability was measured by adding 25 uL of CellTiter Glo (Promega) to the cells and the luminescence was measured by a CLIPR CCD camera (Molecular Devices).
The IC50 value is given as that concentration of the test compound in question that provoke a response halfway between the baseline and maximum responses.

| SMILES | IC50 |
| --- | --- |
| Cc1ccc(-c2noc(CCC(=O)OC(C)C)n2)cc1NC(=O)c1cnc2ccccn12 [F55a, isopropyl 3-(3-(3-(imidazo[1,2-a]pyridine-3-carboxamido)-4-methylphenyl)-1,2,4-oxadiazol-5-yl)propanoate] | 92 nM |
| COc1ccc2ncc(C(=O)Nc3cc(-c4noc(CCC(C)(C)O)n4)ccc3C)n2c1 [F56] | 70 nM |
| Cc1ccc2ncc(C(=O)Nc3cc(-c4noc(CCC(C)(C)O)n4)ccc3C)n2c1 [F57] | 98 nM |
| COCCOCc1nc(-c2ccc(C)c(NC(=O)c3cnc4ccc(C)cn34)c2)no1 [F58] | 90 nM |
| CCCC(C)c1nc(-c2ccc(C)c(NC(=O)c3cnc4ccc(C)cn34)c2)no1 (stereo not drawn) [F59] | 22 nM |
| Cc1ccc(-c2noc(CCC(C)(C)O)n2)cc1NC(=O)c1cnc2cc(N3CCOCC3)ccn12 [F60] | 58 nM |
| Cc1ccc(-c2noc(CCC(C)(C)O)n2)cc1NC(=O)c1cnc2cc(N3CCOC3=O)ccn12 [F61] | 272 nM |
| Cc1ccc(-c2noc(CCC(C)(C)O)n2)cc1NC(=O)c1cnc2cc(N3CCCC3=O)ccn12 [F62] | 79 nM |
| Cc1ccc(-c2noc(CCC(C)(C)O)n2)cc1NC(=O)c1cnc2cc(-c3cnn(C)c3)ccn12 [F63] | 7 nM |
| Cc1ccc(-c2noc(CCC(C)(C)O)n2)cc1NC(=O)c1cnc2cc(C3CC3)ccn12 [F64] | 48 nM |
| Cc1ccc(-c2noc(N(C)CC(C)(C)O)n2)cc1NC(=O)c1cnc2cc(F)ccn12 [F65] | 100 nM |
| Cc1ccc(-c2noc(CCC(C)(O)C(F)(F)F)n2)cc1NC(=O)c1cnc2ccccn12 (stereo not drawn) [F66, N-(2-methyl-5-(5-(4,4,4-trifluoro-3-hydroxy-3-methylbutyl)-1,2,4-oxadiazol-3-yl)phenyl)imidazo[1,2-a]pyridine-3-carboxamide] | 27 nM |
| Cc1ccn2c(C(=O)Nc3cc(-c4noc(CCC(C)(O)C(F)(F)F)n4)ccc3C)cnc2c1 (stereo not drawn) [F67, 7-methyl-N-(2-methyl-5-(5-(4,4,4-trifluoro-3-hydroxy-3-methylbutyl)-1,2,4-oxadiazol-3-yl)phenyl)imidazo[1,2-a]pyridine-3-carboxamide] | 16 nM |
| Cc1ccn2c(C(=O)Nc3cc(-c4noc(NCCF)n4)ccc3C)cnc2c1 [F68] | 54 nM |
| Cc1ccn2c(C(=O)Nc3cc(-c4noc(NCC(C)C)n4)ccc3C)cnc2c1 [F69] | 16 nM |
| Cc1ccc(-c2noc(CCC(C)(O)C(F)(F)F)n2)cc1NC(=O)c1cnc2cc(F)ccn12 (stereo not drawn) [F70] | 44 nM |
| Cc1ccc(-c2noc(CCC(C)(O)C(F)(F)F)n2)cc1NC(=O)c1cnc2ccc(F)cn12 (stereo not drawn) [F71] | 54 nM |
| Cc1ccc2ncc(C(=O)Nc3cc(-c4noc(CCC(C)(O)C(F)(F)F)n4)ccc3C)n2c1 (stereo not drawn) [F72] | 35 nM |
| [2H]c1c([2H])c([2H])n2c(C(=O)Nc3cc(-c4noc(CCC(C)(O)C(F)(F)F)n4)ccc3C)cnc2c1[2H] (stereo not drawn) [F73] | 25 nM |
| Cc1ccc(-c2noc(CCC(F)(F)F)n2)cc1NC(=O)c1cnc2ccccn12 [F74] | 36 nM |
| Cc1ccn2c(C(=O)Nc3cc(-c4noc(COCC(F)(F)F)n4)ccc3C)cnc2c1 [F77] | 10 nM |
| [2H]C([2H])([2H])c1ccn2c(C(=O)Nc3cc(-c4noc(COCC(F)(F)F)n4)ccc3C)cnc2c1 [F78, 7-methyl-d3-N-(2-methyl-5-(5-((2,2,2-trifluoroethoxy)methyl)-1,2,4-oxadiazol-3-yl)phenyl)imidazo[1,2-a]pyridine-3-carboxamide] | 9 nM |
| Cc1ccc2ncc(C(=O)Nc3cc(-c4noc(COCC(F)(F)F)n4)ccc3C)n2c1 [F79] | 13 nM |
| Cc1ccc(-c2noc(CCCC(F)(F)F)n2)cc1NC(=O)c1cnc2ccccn12 [F80] | 5 nM |
| Cc1nc(-c2ccc(C)c(NC(=O)c3cnc4ccc(-c5ccccc5C)cn34)c2)no1 [F81, N-(2-methyl-5-(5-methyl-1,2,4-oxadiazol-3-yl)phenyl)-6-(o-tolyl)imidazo[1,2-a]pyridine-3-carboxamide] | 96 nM |
| Cc1nc(-c2ccc(C)c(NC(=O)c3cnc4ccc(-c5cccnc5C)cn34)c2)no1 [F82] | 53 nM |
| Cc1nc(-c2ccc(C)c(NC(=O)c3cnc4ccc(-c5ccncc5C)cn34)c2)no1 [F83] | 48 nM |
